Laboratory results from patent US9067934B2, “Bicyclic pyridinones” (Pfizer Inc., priority 2011, dated 2015).

System: production of amyloid beta protein Aβ(1-42) (γ-secretase) in human WT-APP overexpressing CHO cells
Test: Cell-Based γ-Secretase Assay with ELISA Readout
Conditions: human WT-APP overexpressing CHO cells, ~24 hours at 37° C., Aβ(1-42) ELISA; footnotes: a = geometric mean of >15 determinations, b = single determination, c = geometric mean of 7-15 determinations; read-out: Aβ 42B IC50 (Geometric Mean of 2-6 Determinations)
Method: Cell-Based γ-Secretase Assay with ELISA Readout
The ability of compounds to modulate production of amyloid beta protein Aβ(1-42) was determined using human WT-APP overexpressing CHO cells. Cells were plated at 22,000 cells/100 μL well in 96 well tissue culture treated, clear plates (Falcon) in DMEM/F12 based medium and incubated for 24 hours at 37° C. Compounds for testing were diluted in 100% DMSO to achieve an eleven points, half log, dose response for IC50 determinations. Compounds were added in fresh medium to achieve 1% final DMSO. Appropriate vehicle or inhibitor controls were added into control wells individually to obtain minimum or maximum inhibition values, respectively, for the assay signal window before the plates were incubated for ˜24 hours at 37° C. This procedure produces conditioned media in each well which is tested for Aβ(1-42) levels in the ELISA detection step described next. The remaining cell cultures in each well are also tested for cell toxicity as described below.
Coating of ELISA assay plates was initiated by addition of 50 μL/well of an in-house Aβ(1-42) specific antibody at (3 μg/mL) in 0.1 M NaHCO3 (pH 9.0) into black 384-well Maxisorp® plates (Nunc) and incubated overnight at 4° C. The capture antibody was then aspirated from the ELISA assay plates and plates were washed 4×100 μL with Wash Buffer (Dulbecco's PBS, 0.05% Tween 20). 90 μL/well of Blocking Buffer (Dulbecco's PBS, 1.0% BSA (Sigma A7030)) was then added to plates. Ambient temperature incubation was allowed to proceed for a minimum of two hours. Blocking buffer was then removed and 20 μL/well Assay Buffer (Dulbecco's PBS, 1.0% BSA (Sigma A7030), 0.05% Tween 20) was then added. At this point, 40 μL (in duplicate) of experimental conditioned media (described above) were transferred into wells of the blocked ELISA plates containing the capture antibody, followed by overnight incubation at 4° C. Cell toxicity was also measured in the corresponding remaining cells after removal of the conditioned media for the Aβ(1-42) assay by a colorimetric cell proliferation assay (CellTiter 96® AQueous One Solution Cell Proliferation Assay, Promega) according to the manufacturer's instructions.
After overnight incubation of the ELISA assay plates at 4° C., unbound Aβ peptides were removed via (4×100 μL) washes with Wash Buffer. Europium (Eu) labeled (custom labeled, Perkin Elmer) Aβ(1-16) 6e10 Monoclonal Antibody (Covance #SIG-39320) was added, (50 μL/well Eu-6e10 @ 1:10,000, 20 uM EDTA) in Assay Buffer. Incubation at ambient temperature for a minimum of 2 hours was followed by (4×100 μL) washes with Wash Buffer, before 30 μL/well of Delfia Enhancement Solution (Perkin Elmer) was added. Following an one hour ambient temperature incubation, the plates were read on an EnVision plate reader (Perkin Elmer) using standard DELFIA TRF settings. Data analysis including inhibitory IC50 determination was performed using nonlinear regression fit analysis (in-house software) and the appropriate plate mean values for the maximum and minimum inhibition controls.

| SMILES | IC50 |
| --- | --- |
| Cc1cn(-c2ccc3n(c2=O)CCN(C(C)C(C)Oc2ccccc2S(F)(F)(F)(F)F)C3=O)cn1 (single isomer, unassigned) [Example 124, 7-(4-methyl-1H-imidazol-1-yl)-2-{3-[2-(pentafluoro-λ^6-sulfanyl)phenoxy]butan-2-yl}-3,4-dihydro-2H-pyrido[1,2-a]pyrazine-1,6-dione] | 2310 nM |
| Cc1cn(-c2ccc3n(c2=O)CCN(C(C)C(C)Oc2ccccc2S(F)(F)(F)(F)F)C3=O)cn1 (single isomer, unassigned) [Example 125, 7-(4-methyl-1H-imidazol-1-yl)-2-{3-[2-(pentafluoro-λ^6-sulfanyl)phenoxy]butan-2-yl}-3,4-dihydro-2H-pyrido[1,2-a]pyrazine-1,6-dione] | 653 nM |
| Cc1cn(-c2ccc3n(c2=O)CCN(C(C)C(C)Oc2ccccc2S(F)(F)(F)(F)F)C3=O)cn1 (single isomer, unassigned) [Example 126, 7-(4-methyl-1H-imidazol-1-yl)-2-{3-[2-(pentafluoro-λ^6-sulfanyl)phenoxy]butan-2-yl}-3,4-dihydro-2H-pyrido[1,2-a]pyrazine-1,6-dione] | 20.1 nM |
| Cc1cn(-c2ccc3n(c2=O)CCN(C(C)C(C)Oc2ccccc2S(F)(F)(F)(F)F)C3=O)cn1 (single isomer, unassigned) [Example 127, 7-(4-methyl-1H-imidazol-1-yl)-2-{3-[2-(pentafluoro-λ^6-sulfanyl)phenoxy]butan-2-yl}-3,4-dihydro-2H-pyrido[1,2-a]pyrazine-1,6-dione] | 1070 nM |
| Cc1cn(-c2ccc3n(c2=O)CCN(CCOc2ccc(F)cc2C(F)(F)F)C3=O)cn1 [Example 1, 2-{2-[4-Fluoro-2-(trifluoromethyl)phenoxy]ethyl}-7-(4-methyl-1H-imidazol-1-yl)-3,4-dihydro-2H-pyrido[1,2-a]pyrazine-1,6-dione] | 256 nM |
| Cc1ncc(-c2ccc3n(c2=O)CCN(CCOc2cccc4ccc(F)cc24)C3=O)o1 [Example 2, 2-{2-[(7-Fluoronaphthalen-1-yl)oxy]ethyl}-7-(2-methyl-1,3-oxazol-5-yl)-3,4-dihydro-2H-pyrido[1,2-a]pyrazine-1,6-dione] | 434 nM |
| Cc1cn(-c2ccc3n(c2=O)CCN(CCOc2cccc4ccccc24)C3=O)cn1 [Example 3, 7-(4-methyl-1H-imidazol-1-yl)-2-[2-(1-naphthyloxy)ethyl]-3,4-dihydro-2H-pyrido[1,2-a]pyrazine-1,6-dione] | 86 nM |
| Cc1cn(-c2ccc3n(c2=O)CCN(CC(C)(C)Oc2cccc(Cl)c2Cl)C3=O)cn1 [Example 4, 2-[2-(2,3-dichlorophenoxy)-2-methylpropyl]-7-(4-methyl-1H-imidazol-1-yl)-3,4-dihydro-2H-pyrido[1,2-a]pyrazine-1,6-dione] | 146 nM |
| Cc1cn(-c2ccc3n(c2=O)CCN(CC(C)Oc2ccc(C(F)(F)F)cc2)C3=O)cn1 (stereo not shown) [Example 5, 7-(4-methyl-1H-imidazol-1-yl)-2-{2-[4-(trifluoromethyl)phenoxy]propyl}-3,4-dihydro-2H-pyrido[1,2-a]pyrazine-1,6-dione] | 996 nM |
| Cc1cn(-c2ccc3n(c2=O)CCN(CCOc2ccc(Cl)c4ccccc24)C3=O)cn1 [Example 6, 2-{2-[(4-chloro-1-naphthyl)oxy]ethyl}-7-(4-methyl-1H-imidazol-1-yl)-3,4-dihydro-2H-pyrido[1,2-a]pyrazine-1,6-dione] | 36.5 nM |
| COc1ccc2cccc(OCCN3CCn4c(ccc(-n5cnc(C)c5)c4=O)C3=O)c2c1 [Example 7, 2-{2-[(7-methoxy-1-naphthyl)oxy]ethyl}-7-(4-methyl-1H-imidazol-1-yl)-3,4-dihydro-2H-pyrido[1,2-a]pyrazine-1,6-dione] | 42 nM |
| COc1ccc(OCCN2CCn3c(ccc(-n4cnc(C)c4)c3=O)C2=O)c2ccccc12 [Example 8, 2-{2-[(4-methoxy-1-naphthyl)oxy]ethyl}-7-(4-methyl-1H-imidazol-1-yl)-3,4-dihydro-2H-pyrido[1,2-a]pyrazine-1,6-dione] | 93 nM |
| Cc1cn(-c2ccc3n(c2=O)CCN(CCOc2ccc(Cl)c4c2CCC4)C3=O)cn1 [Example 9, 2-{2-[(7-chloro-2,3-dihydro-1H-inden-4-yl)oxy]ethyl}-7-(4-methyl-1H-imidazol-1-yl)-3,4-dihydro-2H-pyrido[1,2-a]pyrazine-1,6-dione] | 83.9 nM |
| Cc1cn(-c2ccc3n(c2=O)CCN(CCOc2cc(Cl)cc(Cl)c2Cl)C3=O)cn1 [Example 10, 7-(4-methyl-1H-imidazol-1-yl)-2-[2-(2,3,5-trichlorophenoxy)ethyl]-3,4-dihydro-2H-pyrido[1,2-a]pyrazine-1,6-dione] | 127 nM |
| Cc1cn(-c2ccc3n(c2=O)CCN(CCOc2ccc(F)c4occc24)C3=O)cn1 [Example 11, 2-{2-[(7-fluoro-1-benzofuran-4-yl)oxy]ethyl}-7-(4-methyl-1H-imidazol-1-yl)-3,4-dihydro-2H-pyrido[1,2-a]pyrazine-1,6-dione] | 536 nM |
| Cc1cn(-c2ccc3n(c2=O)CCN(CCOc2ccc(Cl)c(C(F)(F)F)c2)C3=O)cn1 [Example 12, 2-{2-[4-chloro-3-(trifluoromethyl)phenoxy]ethyl}-7-(4-methyl-1H-imidazol-1-yl)-3,4-dihydro-2H-pyrido[1,2-a]pyrazine-1,6-dione] | 196 nM |
| Cc1cn(-c2ccc3n(c2=O)CCN(CCOc2ccccc2C(C)(C)C)C3=O)cn1 [Example 13, 2-[2-(2-tert-butylphenoxy)ethyl]-7-(4-methyl-1H-imidazol-1-yl)-3,4-dihydro-2H-pyrido[1,2-a]pyrazine-1,6-dione] | 108 nM |
| Cc1cn(-c2ccc3n(c2=O)CCN(CCOc2cccc4c2CCCC4)C3=O)cn1 [Example 14, 7-(4-methyl-1H-imidazol-1-yl)-2-[2-(5,6,7,8-tetrahydronaphthalen-1-yloxy)ethyl]-3,4-dihydro-2H-pyrido[1,2-a]pyrazine-1,6-dione] | 197 nM |
| Cc1cn(-c2ccc3n(c2=O)CCN(CCOc2ccccc2OC(F)(F)F)C3=O)cn1 [Example 15, 7-(4-methyl-1H-imidazol-1-yl)-2-{2-[2-(trifluoromethoxy)phenoxy]ethyl}-3,4-dihydro-2H-pyrido[1,2-a]pyrazine-1,6-dione] | 275 nM |
| Cc1cn(-c2ccc3n(c2=O)CCN(CCOc2cccc4c2CCC4)C3=O)cn1 [Example 16, 2-[2-(2,3-dihydro-1H-inden-4-yloxy)ethyl]-7-(4-methyl-1H-imidazol-1-yl)-3,4-dihydro-2H-pyrido[1,2-a]pyrazine-1,6-dione] | 234 nM |
| Cc1ccc(OCCN2CCn3c(ccc(-n4cnc(C)c4)c3=O)C2=O)c(Cl)c1 [Example 17, 2-[2-(2-chloro-4-methylphenoxy)ethyl]-7-(4-methyl-1H-imidazol-1-yl)-3,4-dihydro-2H-pyrido[1,2-a]pyrazine-1,6-dione] | 153 nM |
| Cc1cn(-c2ccc3n(c2=O)CCN(CCOc2cccc(-c4ccccc4)c2)C3=O)cn1 [Example 18, 2-[2-(biphenyl-3-yloxy)ethyl]-7-(4-methyl-1H-imidazol-1-yl)-3,4-dihydro-2H-pyrido[1,2-a]pyrazine-1,6-dione] | 151 nM |
| Cc1cn(-c2ccc3n(c2=O)CCN(CCOc2cccc(Oc4ccccc4)c2)C3=O)cn1 [Example 19, 7-(4-methyl-1H-imidazol-1-yl)-2-[2-(3-phenoxyphenoxy)ethyl]-3,4-dihydro-2H-pyrido[1,2-a]pyrazine-1,6-dione] | 203 nM |
| Cc1cn(-c2ccc3n(c2=O)CCN(CCOc2cccc(C(F)(F)F)c2Cl)C3=O)cn1 [Example 20, 2-{2-[2-chloro-3-(trifluoromethyl)phenoxy]ethyl}-7-(4-methyl-1H-imidazol-1-yl)-3,4-dihydro-2H-pyrido[1,2-a]pyrazine-1,6-dione] | 157 nM |
| Cc1cn(-c2ccc3n(c2=O)CCN(CCOc2ccc(F)cc2C2CC2)C3=O)cn1 [Example 21, 2-[2-(2-cyclopropyl-4-fluorophenoxy)ethyl]-7-(4-methyl-1H-imidazol-1-yl)-3,4-dihydro-2H-pyrido[1,2-a]pyrazine-1,6-dione] | 262 nM |
